Results reported in paper PMC8624998, “Synthesis and Antiproliferative Evaluation of 3-Chloroazetidin-2-ones with Antimitotic Activity: Heterocyclic Bridged Analogues of Combretastatin A-4” (Pharmaceuticals, 2021).
Where two headings read alike, the source gives them in different places.

Key:
[1] = tested on: NCI-H332M; assay: NCI-60 5 dose screen, NSC Lung Cancer; format: cell-based; details: Homo sapiens
[2] = tested on: ACHN; assay: NCI-60 5 dose screen, Renal Cancer; format: cell-based; details: Homo sapiens
[3] = tested on: CAKI-1; assay: NCI-60 5 dose screen, Renal Cancer; format: cell-based; details: Homo sapiens
[4] = tested on: MCF-7 cells; assay: Annexin V/PI apoptotic assay; details: for total apoptotic cells (Annexin V-stained positive cells): 48 h
Experimental: The Annexin V/Propidium Iodide (PI) assay was used to detect both early- and late-stage apoptosis using flow cytometry, as previously reported [34]. Early apoptosis is detected by the presence of phosphatidylserine (PS) on the outer surface of the cell membrane. […] Cells were then analysed using flow cytometry. […] Cells were washed in binding buffer and then re-suspended in PI-containing binding buffer (1:1000). Samples were analysed without delay using the BD Accuri flow cytometer and the data analysed with GraphPad Prism software.
MCF-7 breast cancer cells were treated with 10n (50 and 500 nM) or CA-4 (50 nM) or control vehicle (0.1% ethanol (v/v)). The percentage of apoptotic cells was determined by staining with Annexin V-FITC and propidium iodide (PI). […] Values represent the mean of three independent experiments.

[5] = tested on: colchicine binding site of β-tubulin; assay: Colchicine binding-site (EBI) assay; format: cell-based, human; details: MCF-7, 10 μM for 2 h, then EBI 100 μM
Experimental: A colchicine-site binding assay was performed to evaluate the interaction of compound 10n at the colchicine binding site of tubulin using N,N-ethylenebis(iodoacetamide) (EBI). EBI crosslinks the Cys-239 and Cys-354 residues of the colchicine binding site of β-tubulin, alkylating the sulfhydryl group of cysteine. […] Microtubule targeting compounds binding at the colchicine site, e.g., colchicine and CA-4, prevent the formation of the β-tubulin-EBI adduct. […] Control samples (ethanol 0.1% (v/v)) indicated the formation of the β-tubulin-EBI adduct at a slightly lower position (Figure 9). […] These tubulin polymerisation inhibitors act on the colchicine site of tubulin and compete with EBI to bind the colchicine binding site and hinder the cross-linking of EBI with β-tubulin.
The assay was performed as we have previously reported. N,N′-Ethylene-bis(iodoacetamide) (EBI) (Santa Cruz Biotechnology) was dissolved in ethanol (100 μM). MCF-7 cells were seeded at a density of 5 × 10^4 cells/well in 6-well plates and incubated overnight. […]
Figure 9 Effects of compound 10n on the inhibition of the bisthioalkylation of Cys239 and Cys354 of β-tubulin by N,N′-ethylene-bis(iodoacetamide) (EBI) in MCF-7 cells. […] Cells were harvested, lysed and analysed using […] and Western blotting for β-tubulin and β-tubulin-EBI adducts. […]

[6] = tested on: Bcl-2; assay: Western blot analysis; format: cell-based, human; details: MCF-7, 0.05, 0.1 and 0.5 μM, 48 or 72 h
Text: (§1) The apoptosis regulating proteins Bcl-2 and Mcl-1 were next investigated. The anti-apoptotic or pro-survival Bcl-2 protein is also a member of the Bcl-2 family. It prevents the release of a pro-apoptotic AIF (apoptosis inducing factor) and cytochrome c from the mitochondria into the cytoplasm and prevents apoptosis by sequestering caspases (apoptosis promoters). […] (Figure 9). Mcl-1 protein (an induced myeloid leukaemia cell differentiation protein) is another key anti-apoptotic member of the Bcl-2 family and is localised in the mitochondrial outer membrane. It binds and sequesters the pro-apoptotic Bax/Bak proteins and, thus, prevents the release of cytochrome c. Overexpression of the anti-apoptotic factors Mcl-1, Bcl-2 and Bcl-xL in acute myeloid leukaemia and acute lymphocytic leukaemia may be associated dysregulation of apoptosis. […] (Figure 10). Apoptosis can be triggered by a reduction in the expression levels of Mcl-1 and Bcl-2 (e.g., by drug treatment). […]
(§2) MCF-7 cells were seeded at a density of 1 × 10^5 cells/flask in T25 flasks. […] Equal quantities of protein (as determined using a BCA assay) were resolved by SDS-PAGE (12%) followed by transfer to PVDF membranes. […] Proteins were detected using enhanced chemiluminescent Western blot detection (Clarity Western ECL substrate) (Bio Rad) on the ChemiDoc MP System (Bio Rad). […]

[7] = tested on: Mcl-1; assay: Western blot analysis; format: cell-based, human; details: MCF-7, 0.05, 0.1 and 0.5 μM, 48 or 72 h
Text: as §1, §2

[8] = tested on: OVCAR-8; assay: NCI-60 5 dose screen, Ovarian Cancer; format: cell-based; details: Homo sapiens
[9] = tested on: K-562; assay: NCI-60 5 dose screen, leukaemia; format: cell-based; details: Homo sapiens, K562
[10] = tested on: CCRF-CEM; assay: NCI-60 5 dose screen, leukaemia; format: cell-based; details: Homo sapiens
[11] = Homo sapiens, MCF7, 48 h, read-out: Viable

COc1ccc([C@H]2[C@H](Cl)C(=O)N2c2cc(OC)c(OC)c(OC)c2)cc1 (relative stereo) [Compound 10e trans, Trans-3-chloro-1-(3,4,5-trimethoxyphenyl)-4-(4-methoxyphenyl) azetidin-2-one]
GI50 [1]: 962 nM
GI50 ([2]; read-out: GI50): 97.1 nM
GI50 ([3]; read-out: GI50): 122 nM

COc1ccc(/C=C\c2cc(OC)c(OC)c(OC)c2)cc1O [CA-4, Combretastatin A-4]
total apoptotic cells (Annexin V-stained positive cells) ([4]; 50 nM): 34.6%
viability at 0.05 µM [4, 11]: 61.8%
β-tubulin-EBI adduct formation [5]: Tubulin EBI adduct formation was inhibited

COc1ccc(C2C(Cl)C(=O)N2c2cc(OC)c(OC)c(OC)c2)cc1O (stereo not shown) [Compound 10n, 3-Chloro-4-(3-hydroxy-4-methoxy-phenyl)-1-(3,4,5-trimethoxyphenyl)azetidin-2-one]
total apoptotic cells (Annexin V-stained positive cells) ([4]; 50 nM): 29.8%
total apoptotic cells (Annexin V-stained positive cells) ([4]; 500 nM): 37%
viability at 0.05 µM [4, 11]: 66.9%
viability at 0.5 µM [4, 11]: 58.5%
β-tubulin-EBI adduct formation [5]: Tubulin EBI adduct formation was inhibited
level of anti-apoptotic protein Bcl-2 [6]: downregulated in a dose-dependent manner
level of anti-apoptotic protein Mcl-1 [7]: downregulated in a dose-dependent manner

COc1ccc(C2N(c3cc(OC)c(OC)c(OC)c3)C(=O)C2(Cl)Cl)cc1O (stereo not shown) [Compound 11n, 3,3-Dichloro-4-(3-hydroxy-4-methoxyphenyl)-1-(3,4,5-trimethoxyphenyl)azetidin-2-one]
GI50 [2]: 51.1 nM
GI50 [3]: 126 nM

CCSc1ccc(C2C(Br)C(=O)N2c2cc(OC)c(OC)c(OC)c2)cc1 (stereo not shown) [Compound 16d, 3-Bromo-4-(4-(ethylthio)phenyl)-1-(3,4,5-trimethoxyphenyl)azetidin-2-one]
GI50 [8]: 403 nM
GI50 [1]: 7370 nM
GI50 [9]: 54.5 nM
GI50 [10]: 278 nM
